Data as given in patent US5064946A, “Therapeutic nucleosides” (priority 1987, dated 1991).

What was measured:
[1] = tested on: Friend Leukaemia Virus (FLV); conditions: Krieg et al. 1978; cited from earlier work
HIV p24 = test: AZT/Interferon combinations vs. HIV in vitro in PBMC: HIV p24 antigen by radioimmunoassay; assay type: cell-based; conditions: Experiment 4-Day 14, IFNαA 0
HIV [2] = test: AZT/Interferon combinations vs. HIV in vitro in PBMC: reverse transcriptase (RT) activity of supernatants; assay type: cell-based; conditions: rIFNαA 0; for mean reverse transcriptase value: Experiment 2-Day 10
HIV [3] = test: AZT/Interferon combinations vs. HIV in vitro in PBMC: overall inhibition / synergy (all measures of viral replication, isobologram); assay type: cell-based; conditions: experiment 1, all concentrations of AZT
E. coli CN314 = test: In vitro antibacterial MIC and synergy studies against E. coli CN314; conditions: Escherichia coli
[4] = Ostertag et al. 1974; cited from earlier work
clinical = conditions: human, in vivo
Experimental: On days 2 and 3 the patients were also given 500 mg probenecid (PB) every 6 hours and a single dose of AZT was given on day 3.

[5] = tested on: Friend Leukemia Virus (FLV); test: Anti-Friend Leukemia Virus plaque inhibition in FG-10 cells; assay type: cell-based; conditions: 144 h, read-out: Azidothymidine ED50
[6] = tested on: vaccinia, HSVI and varicella zoster virus (VZV); conditions: De Clerq et al. 1980, incl. vaccinia; cited from earlier work
Kaposi's sarcoma (KS) = test: Treatment of Kaposi's sarcoma in 9 patients; assay type: in vivo, human (patients)
Experimental: In this study, 9 patients diagnosed as having Kaposi's sarcoma (KS) were treated with AZT and the following effects observed.

HIV [7] = test: AZT/Acyclovir combinations vs. HIV in vitro (protection); assay type: cell-based
[8] = tested on: thrombocytopaenia purpura; test: Anti-ITP activity: platelet count in a patient with thrombocytopaenia purpura; assay type: in vivo, human (patient)
Experimental: A patient having a platelet count of 38,000 mm^-3 was diagnosed as having thrombocytopaenia purpura (platelet count <100,000 mm^-3) and was treated for 6 weeks with 5 mg/kg of AZT intravenously every 6 hours during which time, their platelet count rose to 140,000 mm^-3. Treatment was then changed to 5 mg/kg/4 hours orally for 4 weeks, discontinued for 4 weeks, when a drop in platelet numbers, to 93,000 mm^-3 after 2 weeks, and to 70,000 mm^-3 after 4 weeks, was seen. Treatment was recommenced at 5 mg/kg/4 hours orally for 5 weeks and the platelet count rose to 194,000 mm^-3.

Cc1cn([C@H]2C[C@H](N=[N+]=[N-])[C@@H](CO)O2)c(=O)[nH]c1=O [AZT]
activity against FLV in in vitro experiments [1]: active against FLV
HIV p24 (HIV p24; AZT 0.02 μM): 100-200 ng protein/ml
HIV p24 (HIV p24; AZT 0.04 μM): 25-30 ng protein/ml
HIV p24 (HIV p24; AZT 0.08 μM): 11.2 ng protein/ml
mean reverse transcriptase value (HIV [2]; AZT 0.01 μM): 159 cpm/10^6 cells × 10^3
mean reverse transcriptase value (HIV [2]; AZT 0.02 μM): 110 cpm/10^6 cells × 10^3
mean reverse transcriptase value (HIV [2]; AZT 0.04 μM): 71 cpm/10^6 cells × 10^3
mean reverse transcriptase value (HIV [2]; AZT 0.08 μM): 31 cpm/10^6 cells × 10^3
mean reverse transcriptase value (HIV [2]; AZT 0.16 μM): 7 cpm/10^6 cells × 10^3
mean RT value (HIV [2]; Experiment 3-Day 13, AZT 0.02 μM): 51 cpm/10^6 cells × 10^3
mean RT value (HIV [2]; Experiment 3-Day 13, AZT 0.04 μM): 10 cpm/10^6 cells × 10^3
mean RT value (HIV [2]; Experiment 3-Day 13, AZT 0.08 μM): 2 cpm/10^6 cells × 10^3
mean RT value (HIV [2]; Experiment 3-Day 13, AZT 0.16 μM): 5 cpm/10^6 cells × 10^3
mean RT value (HIV [2]; Experiment 4-Day 11, AZT 0.02 μM): 8 cpm/10^6 cells × 10^3
mean RT value (HIV [2]; Experiment 4-Day 11, AZT 0.04 μM): 4 cpm/10^6 cells × 10^3
mean RT value (HIV [2]; Experiment 4-Day 11, AZT 0.08 μM): 1 cpm/10^6 cells × 10^3
inhibition of HIV (HIV [3]): fully inhibitory
MIC (E. coli CN314): 1 µg/mL
cellular toxicity [4]: lack of cellular toxicity
decrease in the total body clearance (Cl/F) (clinical): 3 -fold
peak (Cmax) and trough (Cmin) levels on day 3 vs day 1 (clinical): significantly higher than the corresponding levels on day 1
tl/2 (clinical; po, 2 mg/kg): 0.89 h
AUC (clinical; po, 2 mg/kg, AUC): 3.7 µM·h
Cmax (clinical; po, 2 mg/kg, Cmax): 3.74 µM
Tmax (clinical; po, 2 mg/kg, Tmax): 30 min
half-life (clinical; po, 2 mg/kg, mean half-life (tl/2)): 52.8 min
half-life (clinical; po, 2 mg/kg, tl/2): 52.2 min
EC50 [5]: 5 nM
activity against any viruses used in their tests [6]: no appreciable activity
response (Kaposi's sarcoma (KS); 9 patients): 50%
patients exhibiting regression of lesions (Kaposi's sarcoma (KS); of 9 patients): Three
patients in which lesions progressed (Kaposi's sarcoma (KS); of 9 patients): 3 patients
patients in which the KS remained stable (Kaposi's sarcoma (KS); of 9 patients): 2 patients
patients with complete cure (Kaposi's sarcoma (KS); of 9 patients): one
response relative to preferred current therapy (Kaposi's sarcoma (KS); vs recombinant a-interferon): comparable to that obtained with treatment with the preferred current therapy for KS, recombinant a-interferon
inhibition at 8 µM (HIV [7]; Human immunodeficiency virus 1, T-cell, AZT alone, 8 μM): 100%
AZT concentration required to achieve 100% protection (HIV [7]; with ACV 0 μg/ml): 8 µM
platelet count ([8]; 2 weeks after discontinuation): 93,000 mm^-3
platelet count ([8]; 4 weeks after discontinuation): 70,000 mm^-3
platelet count ([8]; after 6 weeks 5 mg/kg i.v. every 6 hours (start 38,000)): 140,000 mm^-3
platelet count ([8]; treatment recommenced, 5 mg/kg/4 hours orally for 5 weeks): 194,000 mm^-3
